Data: US11780826B2 (Amgen Inc., priority 2017, dated 2023)

Tested on: Bovine cardiac myofibrils
Experiment: In vitro model of dose-dependent myofibril ATPase modulation (AC1.4, pyruvate kinase/lactate dehydrogenase-coupled ATPase assay at pCa25)
Type: biochemical
Details: concentration at which ATPase activity was 1.4-fold higher than the bottom of the dose curve, mean of a minimum of two independent tests
Protocol: In vitro Model of Dose-Dependent Myofibril ATPase Modulation: Dose responses were measured using a calcium-buffered, pyruvate kinase and lactate dehydrogenase-coupled ATPase assay containing the following reagents (concentrations expressed are final assay concentrations): Potassium PIPES (12 mM), MgCl2 (2 mM), ATP (1 mM), DTT (1 mM), BSA (0.1 mg/mi), NADH (0.5 mM), PEP (1.5 mM), pyruvate kinase (4 U/ml), lactate dehydrogenase (8 U/ml), and antifoam (90 ppm). The pH was adjusted to 6.80 at 22° C. by addition of potassium hydroxide.
Bovine cardiac myofibrils were obtained by homogenizing the appropriate tissue in the presence of detergent. Such treatment removes membranes and majority of soluble cytoplasmic proteins but leaves intact cardiac sarcomeric acto-myosin apparatus. Concentrations of myofibrils were adjusted to achieve the necessary rate of ATP hydrolysis (typically 0.25-1.0 mg/ml).
Assays were performed by first preparing a dilution series of test chemical entity, each with an assay mixture containing potassium Pipes, MgCl2, BSA, DTT, pyruvate kinase, lactate dehydrogenase, myofibrils, antifoam, EGTA, CaCl2, and water. The assay was started by adding an equal volume of solution containing potassium Pipes, MgCl2, BSA, DTT, ATP, NADH, PEP, antifoam, and water. ATP hydrolysis was monitored by absorbance at 340 nm. The resulting dose response curve was fit by the 4 parameter equation y=Bottom+((Top−Bottom)/(1+((EC50/X)^Hill))). […] AC1.4 values reported in the table below are mean values based on a minimum of two independent tests.

| Molecule | AC1.4 |
| --- | --- |
| Cc1cc(C(=O)N2[C@@H](C(=O)N[C@@H](c3cc(F)c(C(F)(F)F)cc3F)C3CC3)C[C@H]3C[C@H]32)ccn1 [Example 717, (1R,3R,5R)-N-((R)-cyclopropyl(2,5-difluoro-4-(trifluoromethyl)phenyl)methyl)-2-((2-methyl-4-pyridinyl)carbonyl)-2-azabicyclo[3.1.0]hexane-3-carboxamide] | 6.259 µM |
| N#CC1CN(S(=O)(=O)c2cccc(C(=O)N3CCC[C@@H]3C(=O)NCc3ccc(C(F)F)cc3)c2)C1 [Example 102, 1-((3-((3-cyano-1-azetidinyl)sulfonyl)phenyl)carbonyl)-N-(4-(difluoromethyl)benzyl)-D-prolinamide] | 0.1574 µM |
| N#CC1CN(S(=O)(=O)c2cccc(C(=O)N3CCC[C@@H]3C(=O)N[C@@H](c3ccc(S(F)(F)(F)(F)F)cc3)C3CC3)c2)C1 [Example 52, 1-(3-((3-cyano-1-azetidinyl)sulfonyl)benzoyl)-N-((R)-cyclopropyl(4-(pentafluoro-lambda~6~-sulfanyl)phenyl)methyl)-D-prolinamide] | 0.05535 µM |
| Cc1cc(C(=O)N2[C@@H](C(=O)N[C@@H](c3ccc(C(F)(F)F)cc3F)C3CC3)C[C@H]3C[C@H]32)c(NCCO)cn1 [Example 545, (1R,3R,5R)-N-((R)-cyclopropyl(2-fluoro-4-(trifluoromethyl)phenyl)methyl)-2-((5-((2-hydroxyethyl)amino)-2-methyl-4-pyridinyl)carbonyl)-2-azabicyclo[3.1.0]hexane-3-carboxamide] | 2.818 µM |
| Cc1cc(C(=O)N2[C@@H](C(=O)N[C@@H](c3cc(F)c(C(F)(F)F)cc3F)C3COC3)C[C@H]3C[C@H]32)c2[nH]ncc2c1 [Example 820, (1R,3R,5R)-N-((R)-(2,5-difluoro-4-(trifluoromethyl)phenyl)(oxetan-3-yl)methyl)-2-(5-methyl-1H-indazole-7-carbonyl)-2-azabicyclo[3.1.0]hexane-3-carboxamide] | 0.9916 µM |
| NC(=O)[C@H]1C[C@H](S(=O)(=O)N2CCC[C@H](C(=O)N3CCC[C@@H]3C(=O)NCc3ccc(C(F)(F)F)cc3)C2)C1 [Example 626, 1-(((3S)-1-((trans-3-carbamoylcyclobutyl)sulfonyl)-3-piperidinyl)carbonyl)-N-(4-(trifluoromethyl)benzyl)-D-prolinamide] | 4.031 µM |
| COc1ccc(CNC(=O)[C@H]2CCCN2C(=O)[C@H]2CCCN(S(=O)(=O)N3CC(C#N)C3)C2)cc1F [Example 457, 1-(((3S)-1-((3-cyano-1-azetidinyl)sulfonyl)-3-piperidinyl)carbonyl)-N-(3-fluoro-4-methoxybenzyl)-D-prolinamide] | 1.8865 µM |
| Cc1c(F)cccc1CNC(=O)[C@H]1CCCN1C(=O)[C@H]1CCCN(S(=O)(=O)N2CC(C#N)C2)C1 [Example 288] | 0.7452 µM |
| C[C@@H](NC(=O)[C@H]1C[C@H]2C[C@H]2N1C(=O)c1cccc(S(C)(=O)=O)c1)c1cc(F)c(Cl)cc1F [Example 534, (1R,3R,5R)-N-((1R)-1-(4-chloro-2,5-difluorophenyl)ethyl)-2-(3-(methylsulfonyl)benzoyl)-2-azabicyclo[3.1.0]hexane-3-carboxamide] | 2.611 µM |
| CNc1ccc(S(C)(=O)=O)cc1C(=O)N1CCC[C@@H]1C(=O)N[C@@H](c1ccc(C(F)(F)F)cc1F)C1CC1 [Example 228, N-((R)-cyclopropyl(2-fluoro-4-(trifluoromethyl)phenyl)methyl)-1-(2-(methylamino)-5-(methylsulfonyl)benzoyl)-D-prolinamide] | 0.4974 µM |
| O=C(NCc1ccc(C(F)(F)F)cc1)[C@H]1CCCN1C(=O)[C@H]1CCCN(S(=O)(=O)N2CCC23CCC3)C1 [Example 800, 1-(((3S)-1-(1-azaspiro[3.3]hept-1-ylsulfonyl)-3-piperidinyl)carbonyl)-N-(4-(trifluoromethyl)benzyl)-D-prolinamide] | 9.537 µM |
| O=C(N[C@@H](c1ccc(C(F)(F)F)cc1F)C1COC1)[C@H]1C[C@H]2C[C@H]2N1C(=O)c1ccnc(C(F)(F)F)c1 [Example 392, (1R,3R,5R)-N-((R)-(2-fluoro-4-(trifluoromethyl)phenyl)(3-oxetanyl)methyl)-2-((2-(trifluoromethyl)-4-pyridinyl)carbonyl)-2-azabicyclo[3.1.0]hexane-3-carboxamide] | 1.268 µM |

Results, then the molecule that gave them:

| AC1.4 | Molecule |
| --- | --- |
| 9.129 µM | CCS(=O)(=O)c1cccc(C(=O)N2CCC[C@@H]2C(=O)NCc2ccc(C(F)(F)F)cc2)c1 [Example 793, 1-(3-(ethylsulfonyl)benzoyl)-N-(4-(trifluoromethyl)benzyl)-D-prolinamide] |
| 0.1388 µM | O=C(N[C@@H](c1cc(F)c(Cl)cc1F)C1CC1)[C@H]1C[C@H]2C[C@H]2N1C(=O)c1cccc(S(=O)(=O)C2CC2)c1 [Example 92, (1R,3R,5R)-N-((R)-(4-chloro-2,5-difluorophenyl)(cyclopropyl)methyl)-2-(3-(cyclopropylsulfonyl)benzoyl)-2-azabicyclo[3.1.0]hexane-3-carboxamide] |
| 7.331 µM | 1-(((3S)-1-(((6R)-6-hydroxy-2-azaspiro[3.4]oct-2-yl)sulfonyl)-3-piperidinyl)carbonyl)-N-(4-(trifluoromethyl)benzyl)-D-prolinamide,1-(((3S)-1-(((6S)-6-hydroxy-2-azaspiro[3.4]oct-2-yl)sulfonyl)-3-piperidinyl)carbonyl)-N-(4-(trifluoromethyl)benzyl)-D-prolinamide [Example 750] |
| 0.05315 µM | C[C@@H](NC(=O)[C@H]1CCCN1C(=O)c1cccc(S(=O)(=O)N2CC(C#N)C2)c1)c1ccc(C(F)F)cc1F [Example 49, 1-((3-((3-cyano-1-azetidinyl)sulfonyl)phenyl)carbonyl)-N-((1R)-1-(4-(difluoromethyl)-2-fluorophenyl)ethyl)-D-prolinamide] |
| 4.071 µM | CS(=O)(=O)c1cccc(C(=O)N2C[C@@H](C(F)F)C[C@@H]2C(=O)N[C@@H](c2ccc(C(F)(F)F)cc2F)C2CC2)c1 [Example 656, (4S)-N-((R)-cyclopropyl(2-fluoro-4-(trifluoromethyl)phenyl)methyl)-4-(difluoromethyl)-1-(3-(methylsulfonyl)benzoyl)-D-prolinamide] |
| 0.0766 µM | CCS(=O)(=O)c1cccc(C(=O)N2[C@@H](C(=O)N[C@@H](c3cc(F)c(Cl)cc3F)C3COC3)C[C@H]3C[C@H]32)c1 [Example 66, (1R,3R,5R)-N-((R)-(4-chloro-2,5-difluorophenyl)(3-oxetanyl)methyl)-2-(3-(ethylsulfonyl)benzoyl)-2-azabicyclo[3.1.0]hexane-3-carboxamide] |
| 0.5685 µM | N#CC1CN(S(=O)(=O)N2CCC[C@H](C(=O)N3C[C@H](O)C[C@@H]3C(=O)NCc3ccc(C(F)(F)F)cc3)C2)C1 [Example 240, (2R,4R)-1-((S)-1-((3-cyanoazetidin-1-yl)sulfonyl)piperidine-3-carbonyl)-4-hydroxy-N-(4-(trifluoromethyl)benzyl)pyrrolidine-2-carboxamide] |
| 2.3515 µM | N#CC1CN(S(=O)(=O)N2CCC[C@H](C(=O)N3CCC[C@@H]3C(=O)NC3CCOc4ccccc43)C2)C1 (stereo partly drawn) [Example 502, (2R)-N-(chroman-4-yl)-1-((S)-1-((3-cyanoazetidin-l-yl)sulfonyl)piperidine-3-carbonyl)pyrrolidine-2-carboxamide] |
